Source: patent publication US11839613B2, “Pyrimidine derivatives as PGE2 receptor modulators” (IDORSIA PHARMACEUTICALS LTD, priority 2017, dated 2023)

How the values were obtained:
EP4 = EP4 (Homo sapiens (Human), UniProt P35408); assay: hEP4 cAMP assay (BT549 breast cancer cells, HTRF cAMP); assay type: cell-based; settings: antagonistic activity, PGE2 6 nM
Procedure, shortened: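 BT549 breast cancer cells (endogenous EP4) in HBSS/20 mM HEPES/0.2% BSA/2 mM IBMX preincubated 45 min at RT with compound, then stimulated 30 min at RT with 6 nM PGE2 (final). cAMP read by competitive HTRF immunoassay, signal inversely proportional to cAMP.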

EP2 = EP2 (Homo sapiens (Human), UniProt P43116); assay: hEP2 cAMP assay (SF295 glioblastoma cells, HTRF cAMP); assay type: cell-based; settings: antagonistic activity
Chain of EP2 (P43116 whole entry): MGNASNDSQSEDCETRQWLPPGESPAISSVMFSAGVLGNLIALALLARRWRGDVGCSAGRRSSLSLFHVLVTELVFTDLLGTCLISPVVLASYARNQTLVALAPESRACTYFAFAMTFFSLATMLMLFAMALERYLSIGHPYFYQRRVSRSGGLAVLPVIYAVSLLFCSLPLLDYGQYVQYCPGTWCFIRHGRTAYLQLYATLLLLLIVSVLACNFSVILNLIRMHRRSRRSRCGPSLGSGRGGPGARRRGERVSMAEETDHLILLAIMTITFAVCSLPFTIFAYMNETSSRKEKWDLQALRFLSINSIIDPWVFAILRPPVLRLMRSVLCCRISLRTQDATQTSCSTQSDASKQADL
Procedure, shortened: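 PGE2-driven cAMP accumulation was measured by HTRF in SF295 cells, which express endogenous EP2 only. Cells in assay buffer with 2 mM IBMX were pre-incubated 45 min at RT, then incubated 30 min at RT. Detection used competition between cellular cAMP and d2-cAMP for a cryptate anti-cAMP antibody.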

PTGER4 (EP4) = PTGER4 (EP4) (Homo sapiens (Human), UniProt P35408); assay: cell-based
Chain of PTGER4 (EP4) (P35408 whole entry): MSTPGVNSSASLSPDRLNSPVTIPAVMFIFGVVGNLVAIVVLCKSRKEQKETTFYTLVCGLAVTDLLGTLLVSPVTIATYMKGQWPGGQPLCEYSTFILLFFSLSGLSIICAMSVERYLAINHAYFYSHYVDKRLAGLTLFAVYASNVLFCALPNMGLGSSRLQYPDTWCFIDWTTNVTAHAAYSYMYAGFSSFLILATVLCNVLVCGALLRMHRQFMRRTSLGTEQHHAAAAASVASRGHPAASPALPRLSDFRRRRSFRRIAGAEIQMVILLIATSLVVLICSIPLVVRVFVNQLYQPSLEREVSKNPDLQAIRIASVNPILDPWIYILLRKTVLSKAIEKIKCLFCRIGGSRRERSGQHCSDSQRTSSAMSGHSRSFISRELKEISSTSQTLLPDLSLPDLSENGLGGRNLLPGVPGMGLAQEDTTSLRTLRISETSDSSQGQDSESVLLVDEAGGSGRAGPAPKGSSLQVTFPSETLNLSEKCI

PTGER2 (EP2) = PTGER2 (EP2) (Homo sapiens (Human), UniProt P43116); assay: hEP2 b-arrestin assay (PathHunter HEK 293 PTGER2 b-arrestin cells); assay type: cell-based; settings: antagonistic activity, beta-arrestin assay; read-out: hEP2 b-arr IC50
Chain of PTGER2 (EP2) (P43116 whole entry): as the sequence (P43116 whole entry) above
Method: Plate is pre-incubated 15 minutes at 37° C. Then five microliters of PGE2 (final conc. 5 μM) are transferred into the assay plate. Plate is incubated 120 minutes at 37° C.
(each concentration is measured in duplicate)

Chain of EP4 (P35408 whole entry): as the sequence (P35408 whole entry) above

CCOc1cc(-c2cc(NCCc3cc4c(cc3C)OCCO4)ncn2)sc1-c1noc(=O)[nH]1 [Example 341, 3-(3-Ethoxy-5-{6-[2-(7-methyl-2,3-dihydro-benzo[1,4]dioxin-6-yl)-ethylamino]-pyrimidin-4-yl}-thiophen-2-yl)-[1,2,4]oxadiazol-5(4H)-one]
IC50 (EP4): 36 nM
IC50 (EP2): 41 nM
IC50 (PTGER4 (EP4)): 14 nM
IC50 (PTGER2 (EP2)): 12 nM

CCOc1cc(-c2cc(NCCc3cc4ccsc4cc3OC)ncn2)sc1-c1noc(=O)[nH]1 [Example 342, 3-(3-Ethoxy-5-{6-[2-(6-methoxy-benzo[b]thiophen-5-yl)-ethylamino]-pyrimidin-4-yl}-thiophen-2-yl)-[1,2,4]oxadiazol-5(4H)-one]
IC50 (EP4): 19 nM
IC50 (EP2): 20 nM
IC50 (PTGER4 (EP4)): 3 nM
IC50 (PTGER2 (EP2)): 7 nM

CCOc1cc(-c2cc(NCCc3ccc4cc[nH]c4c3)ncn2)sc1-c1noc(=O)[nH]1 [Example 343, 3-(3-Ethoxy-5-{6-[2-(1H-indol-6-yl)-ethylamino]-pyrimidin-4-yl}-thiophen-2-yl)-[1,2,4]oxadiazol-5(4H)-one]
IC50 (EP4): 12 nM
IC50 (EP2): 23 nM
IC50 (PTGER4 (EP4)): 2 nM
IC50 (PTGER2 (EP2)): 9 nM

CCOc1cc(-c2cc(NCCc3ccc4c(c3)OCO4)ncn2)sc1-c1noc(=O)[nH]1 [Example 344, 3-{5-[6-(2-Benzo[1,3]dioxol-5-yl-ethylamino)-pyrimidin-4-yl]-3-ethoxy-thiophen-2-yl}-[1,2,4]oxadiazol-5(4H)-one]
IC50 (EP4): 14 nM
IC50 (EP2): 33 nM
IC50 (PTGER4 (EP4)): 39 nM
IC50 (PTGER2 (EP2)): 33 nM

CCOc1cc(-c2cc(NCCc3cc4cccnc4cc3F)ncn2)sc1-c1noc(=O)[nH]1 [Example 348, 3-(3-Ethoxy-5-{6-[2-(7-fluoro-quinolin-6-yl)-ethylamino]-pyrimidin-4-yl}-thiophen-2-yl)-[1,2,4]oxadiazol-5(4H)-one]
IC50 (EP4): 8 nM
IC50 (EP2): 113 nM
IC50 (PTGER4 (EP4)): 2 nM
IC50 (PTGER2 (EP2)): 172 nM

CCOc1cc(-c2cc(NCCc3cc4cccnc4cc3F)ncn2)sc1-c1nnn[nH]1 [Example 349, {6-[4-Ethoxy-5-(1H-tetrazol-5-yl)-thiophen-2-yl]-pyrimidin-4-yl}-[2-(7-fluoro-quinolin-6-yl)-ethyl]-amine]
IC50 (EP4): 14 nM
IC50 (EP2): 103 nM
IC50 (PTGER4 (EP4)): 4 nM
IC50 (PTGER2 (EP2)): 109 nM

CCOc1nc(-c2cc(NCCc3ccc4ccccc4c3C)ncn2)sc1C(=O)O [Example 350, 4-Ethoxy-2-{6-[2-(1-methyl-naphthalen-2-yl)-ethylamino]-pyrimidin-4-yl}-thiazole-5-carboxylic acid]
IC50 (EP4): 10 nM
IC50 (EP2): 51 nM
IC50 (PTGER4 (EP4)): 21 nM
IC50 (PTGER2 (EP2)): 83 nM

CCc1nc(-c2cc(NCCc3ccc4ccccc4c3C)ncn2)sc1C(=O)O [Example 351, 4-Ethyl-2-{6-[2-(1-methyl-naphthalen-2-yl)-ethylamino]-pyrimidin-4-yl}-thiazole-5-carboxylic acid]
IC50 (EP4): 167 nM
IC50 (EP2): 236 nM
IC50 (PTGER4 (EP4)): 79 nM
IC50 (PTGER2 (EP2)): 475 nM

CCOc1nc(-c2cc(NCCc3ccc4ccccc4c3C)ncn2)sc1-c1noc(=O)[nH]1 [Example 352, 3-(4-Ethoxy-2-{6-[2-(1-methyl-naphthalen-2-yl)-ethylamino]-pyrimidin-4-yl}-thiazol-5-yl)-[1,2,4]oxadiazol-5(4H)-one]
IC50 (EP4): 24 nM
IC50 (EP2): 142 nM
IC50 (PTGER4 (EP4)): 5 nM
IC50 (PTGER2 (EP2)): 42 nM

CCc1nc(-c2cc(NCCc3ccc4ccccc4c3C)ncn2)sc1-c1noc(=O)[nH]1 [Example 353, 3-(4-Ethyl-2-{6-[2-(1-methyl-naphthalen-2-yl)-ethylamino]-pyrimidin-4-yl}-thiazol-5-yl)-[1,2,4]oxadiazol-5(4H)-one]
IC50 (EP4): 109 nM
IC50 (EP2): 115 nM
IC50 (PTGER4 (EP4)): 9 nM
IC50 (PTGER2 (EP2)): 237 nM

CCOc1cc(-c2cc(NCCc3ccc4ccccc4c3C)ncn2)sc1C(=O)NS(N)(=O)=O [Example 354, 3-Ethoxy-5-(6-((2-(1-methylnaphthalen-2-yl)ethyl)amino)pyrimidin-4-yl)-N-sulfamoylthiophene-2-carboxamide]
IC50 (EP4): 56 nM
IC50 (EP2): 27 nM
IC50 (PTGER4 (EP4)): 32 nM
IC50 (PTGER2 (EP2)): 41 nM

CCOc1cc(-c2cc(NCCc3ccc4ccccc4c3C)ncn2)sc1C(=O)NS(C)(=O)=O [Example 355, N-(3-Ethoxy-5-{6-[2-(1-methyl-naphthalen-2-yl)-ethylamino]-pyrimidin-4-yl}-thiophene-2-carbonyl)-methanesulfonamide]
IC50 (EP4): 95 nM
IC50 (EP2): 46 nM
IC50 (PTGER4 (EP4)): 29 nM
IC50 (PTGER2 (EP2)): 55 nM

CCOc1cc(-c2cc(NCCc3cc(Cl)c4sccc4c3)ncn2)ccc1C(=O)O [Example 358, 4-{6-[2-(7-Chloro-benzo[b]thiophen-5-yl)-ethylamino]-pyrimidin-4-yl}-2-ethoxy-benzoic acid]
IC50 (EP4): 90 nM
IC50 (EP2): 219 nM
IC50 (PTGER4 (EP4)): 138 nM
IC50 (PTGER2 (EP2)): 538 nM

CCOc1cc(-c2cc(NCCc3cc(Cl)c4sccc4c3)ncn2)sc1C(=O)O [Example 359, 5-{6-[2-(7-Chloro-benzo[b]thiophen-5-yl)-ethylamino]-pyrimidin-4-yl}-3-ethoxy-thiophene-2-carboxylic acid]
IC50 (EP4): 2 nM
IC50 (EP2): 61 nM
IC50 (PTGER4 (EP4)): 9 nM
IC50 (PTGER2 (EP2)): 40 nM

CSc1cc(-c2cc(NCCc3cc(Cl)c4sccc4c3)ncn2)ccc1C(=O)O [Example 360, 4-{6-[2-(7-Chloro-benzo[b]thiophen-5-yl)-ethylamino]-pyrimidin-4-yl}-2-methylsulfanyl-benzoic acid]
IC50 (EP4): 44 nM
IC50 (EP2): 183 nM
IC50 (PTGER4 (EP4)): 69 nM
IC50 (PTGER2 (EP2)): 137 nM

CCCc1cc(-c2cc(NCCc3cc4ccsc4cc3OC)ncn2)ccc1CC(=O)O [Example 385, (4-{6-[2-(6-Methoxy-benzo[b]thiophen-5-yl)-ethylamino]-pyrimidin-4-yl}-2-propyl-phenyl)-acetic acid]
IC50 (EP4): 134 nM
IC50 (EP2): 180 nM
IC50 (PTGER4 (EP4)): 71 nM
IC50 (PTGER2 (EP2)): 30 nM

CCCc1cc(-c2cc(NCCc3ccc4sccc4c3F)ncn2)ccc1CC(=O)O [Example 386, (4-{6-[2-(4-Fluoro-benzo[b]thiophen-5-yl)-ethylamino]-pyrimidin-4-yl}-2-propyl-phenyl)-acetic acid]
IC50 (EP4): 54 nM
IC50 (EP2): 453 nM
IC50 (PTGER4 (EP4)): 28 nM
IC50 (PTGER2 (EP2)): 64 nM

CCCc1cc(-c2cc(NCCc3cc(F)c4sccc4c3)ncn2)ccc1CC(=O)O [Example 390, (4-{6-[2-(7-Fluoro-benzo[b]thiophen-5-yl)-ethylamino]-pyrimidin-4-yl}-2-propyl-phenyl)-acetic acid]
IC50 (EP4): 32 nM
IC50 (EP2): 590 nM
IC50 (PTGER4 (EP4)): 29 nM
IC50 (PTGER2 (EP2)): 264 nM

CCOc1cc(-c2cc(NCCc3c(OC)cc4c(c3C)OCCO4)ncn2)ccc1C(=O)O [Example 395, 2-Ethoxy-4-{6-[2-(7-methoxy-5-methyl-2,3-dihydro-benzo[1,4]dioxin-6-yl)-ethylamino]-pyrimidin-4-yl}-benzoic acid]
IC50 (EP4; BT549 cells): 128 nM
IC50 (EP2): 5 nM
IC50 (PTGER4 (EP4)): 98 nM
IC50 (PTGER2 (EP2)): 4 nM

CCOc1cc(-c2cc(NCCc3c(OCC)cc4ccccc4c3C)ncn2)ccc1C(=O)O [Example 418, 2-Ethoxy-4-{6-[2-(3-ethoxy-1-methyl-naphthalen-2-yl)-ethylamino]-pyrimidin-4-yl}-benzoic acid]
IC50 (EP4; BT549 cells): 148 nM
IC50 (EP2): 45 nM
IC50 (PTGER4 (EP4)): 54 nM
IC50 (PTGER2 (EP2)): 10 nM

CCOc1cc2ccccc2c(C)c1CCNc1cc(-c2ccc(C(=O)O)c(SC)c2)ncn1 [Example 419, 4-{6-[2-(3-Ethoxy-1-methyl-naphthalen-2-yl)-ethylamino]-pyrimidin-4-yl}-2-methylsulfanyl-benzoic acid]
IC50 (EP4; BT549 cells): 85 nM
IC50 (EP2): 29 nM
IC50 (PTGER4 (EP4)): 30 nM
IC50 (PTGER2 (EP2)): 3 nM

CCOc1cc(-c2cc(NCCc3c(OCC)cc4ccccc4c3C)ncn2)ccc1CC(=O)O [Example 420, (2-Ethoxy-4-{6-[2-(3-ethoxy-1-methyl-naphthalen-2-yl)-ethylamino]-pyrimidin-4-yl}-phenyl)-acetic acid]
IC50 (EP4; BT549 cells): 119 nM
IC50 (EP2): 257 nM
IC50 (PTGER4 (EP4)): 30 nM
IC50 (PTGER2 (EP2)): 27 nM

CCOc1cc(-c2cc(NCCc3c(OCC)cc4ccccc4c3F)ncn2)ccc1C(=O)O [Example 436, 2-Ethoxy-4-{6-[2-(3-ethoxy-1-fluoro-naphthalen-2-yl)-ethylamino]-pyrimidin-4-yl}-benzoic acid]
IC50 (EP4; BT549 cells): 57 nM
IC50 (EP2): 110 nM
IC50 (PTGER4 (EP4)): 31 nM
IC50 (PTGER2 (EP2)): 16 nM

CCOc1cc(-c2cc(NCCc3cc(F)c4sccc4c3)ncn2)ccc1-c1noc(=O)[nH]1 [Example 451, 3-(2-Ethoxy-4-{6-[2-(7-fluoro-benzo[b]thiophen-5-yl)-ethylamino]-pyrimidin-4-yl}-phenyl)-[1,2,4]oxadiazol-5(4H)-one]
IC50 (EP4; BT549 cells): 16 nM
IC50 (EP2): 660 nM
IC50 (PTGER4 (EP4)): 21 nM
IC50 (PTGER2 (EP2)): 71 nM

CCOc1cc(-c2cc(NCCc3cc(F)c4sccc4c3)ncn2)ccc1-c1nnn[nH]1 [Example 452, {6-[3-Ethoxy-4-(1H-tetrazol-5-yl)-phenyl]-pyrimidin-4-yl}-[2-(7-fluoro-benzo[b]thiophen-5-yl)-ethyl]-amine]
IC50 (EP4; BT549 cells): 18 nM
IC50 (EP2): 371 nM
IC50 (PTGER4 (EP4)): 21 nM
IC50 (PTGER2 (EP2)): 103 nM
